# Source: US20110070232A1, “Combination Therapy with an Antitumor Alkaloid” (Pharma Mar, S.A., priority 2008, published 2011)
# Like-named read-outs stand apart in the source and are kept apart here.
# Columns and labels:
# Assay type in all cases: in vivo, mice
# Hs746T tumors = system: Hs746T tumors
# Method: Female athymic nude mice (Harlan Sprague Dawley, Madison, Wis.) were utilized for all experiments. Animals were housed in ventilated rack caging with food and water ad libitum. The mice were acclimated for at least 5 days prior to tumor implantation with a tumor cell suspension.
# The tumor model used in these studies was Hs746T cell line, which was obtained from the ATCC (Manassas, Va.).
# (§1) Treatments were initiated on DPI 14.
# (§2) Tumor size measurements were recorded twice weekly from the treatment initiation until the termination of the study.
# (§3) Mean, standard deviation and standard error of the mean were determined for tumor volume for all animal groups at all assessments. Student's t test was performed on tumor volumes at each measurement day, including at the end of the study, to determine whether there were any statistically significant differences between combination treatment groups and single monotherapy treatment groups.
# SK-OV-3 tumors = details: for % Inhibition: PM00104 0.9 mg/kg/day, single agents and combination, r5-r14 = day 14,17,21,24,29,32,36,43,50,57
# Source text: Female athymic nude mice (Harlan Sprague Dawley, Madison, Wis.) were utilized for all experiments. Animals were housed in ventilated rack caging with food and water ad libitum. The mice were acclimated for at least 5 days prior to tumor implantation with tumor fragments.
# The tumor model used in these studies was SK-OV-3 cell line, which was obtained from the ATCC (Manassas, Va.).
# SK-OV-3 fragments were removed from donor animals and tissue was debrided of membrane and any hemorrhagic and necrotic areas and 3-4 mm^3 fragments, from in vivo passage 2, were implanted SC on the right flank of each animal, using a 13G trochar. Bacterial culture was taken on cells used to implant the study.
# as §1, §2, §3
# NCI-H460 tumors = details: G2 PM00104 0.9 mg/kg/day IV
# Source text: (§4) Female athymic nude mice (Harlan Sprague Dawley, Madison, Wis.) were utilized for all experiments. Animals were housed in ventilated rack caging with food and water ad libitum. The mice were acclimated for at least 5 days prior to tumor implantation.
# The tumor model used in this study was NCI-H460 cell line which is a human lung cell line obtained from the ATCC (Manassas, Va.). […] Cells from in vitro passage 16 were those implanted SC into study mice.
# Treatments were initiated on DPI 8.
# (§5) Tumor size measurements were recorded 2-3 times/week from the treatment initiation until the termination of the study.
# as §3
# H-Meso-1 tumors = details: G2 PM00104 0.9 mg/kg/day IV
# Method: as §4
# The tumor model used in this study was H-Meso-1 cell line which is a human mesothelioma cell line obtained from the DTP, DCTD tumor repository. […] Cells were implanted SC into study mice using a 1 ml syringe with a 13G trocar: 5×10^6 cells/mouse in 0.2 ml 50% Matrigel/50% RPMI medium of H-Meso-1 without serum or antibiotics. Bacterial culture was taken on cells used to implant the study.
# Treatments were initiated on DPI 6.
# as §5, §3
# [1] = PM00104 0.90 IV, docetaxel 16 IP, oxaliplatin 8 IP mg/kg/day (G2, G3, G5, G7, G9), DPI 14, 21, 28
# [2] = PM00104 0.90 mg/kg/day IV and/or Bevacizumab 5 mg/kg/day IP
smiles,measurement,setting,value
COc1c(C)cc2c(c1O)[C@@H]1[C@@H]3Cc4c(OC(C)=O)c(C)c5c(c4[C@H](CNC(=O)/C=C/c4cccc(C(F)(F)F)c4)N3[C@@H](O)[C@H](C2)N1C)OCO5 [PM00104],% T/C on day 14,Hs746T tumors; [1],99.9%
same,% T/C on day 19,Hs746T tumors; [1],54.9%
same,% T/C on day 22,Hs746T tumors; [1],40.8%
same,% T/C on day 26,Hs746T tumors; [1],39.5%
same,% T/C on day 29,Hs746T tumors; [1],30.4%
same,% T/C on day 32,Hs746T tumors; [1],47.6%
same,% T/C on day 39,Hs746T tumors; [1],80.3%
same,% Inhibition,"Hs746T tumors; day 14, PM00104 0.9 and docetaxel 8 mg/kg/day",0.1%
same,% Inhibition,"Hs746T tumors; day 14, PM00104 0.9 and docetaxel 16 mg/kg/day",0.1%
same,% Inhibition,"Hs746T tumors; day 14, PM00104 0.9 and oxaliplatin 4 mg/kg/day",0.1%
same,% Inhibition,"Hs746T tumors; day 14, PM00104 0.9 and oxaliplatin 8 mg/kg/day",0.1%
same,% Inhibition,"Hs746T tumors; day 19, PM00104 0.9 and docetaxel 8 mg/kg/day",45.1%
same,% Inhibition,"Hs746T tumors; day 19, PM00104 0.9 and docetaxel 16 mg/kg/day",45.1%
same,% Inhibition,"Hs746T tumors; day 19, PM00104 0.9 and oxaliplatin 4 mg/kg/day",45.1%
same,% Inhibition,"Hs746T tumors; day 19, PM00104 0.9 and oxaliplatin 8 mg/kg/day",45.1%
same,% Inhibition,"Hs746T tumors; day 22, PM00104 0.9 and docetaxel 8 mg/kg/day",59.2%
same,% Inhibition,"Hs746T tumors; day 22, PM00104 0.9 and docetaxel 16 mg/kg/day",59.2%
same,% Inhibition,"Hs746T tumors; day 22, PM00104 0.9 and oxaliplatin 4 mg/kg/day",59.2%
same,% Inhibition,"Hs746T tumors; day 22, PM00104 0.9 and oxaliplatin 8 mg/kg/day",59.2%
same,% Inhibition,"Hs746T tumors; day 26, PM00104 0.9 and docetaxel 8 mg/kg/day",60.5%
same,% Inhibition,"Hs746T tumors; day 26, PM00104 0.9 and docetaxel 16 mg/kg/day",60.5%
same,% Inhibition,"Hs746T tumors; day 26, PM00104 0.9 and oxaliplatin 4 mg/kg/day",60.5%
same,% Inhibition,"Hs746T tumors; day 26, PM00104 0.9 and oxaliplatin 8 mg/kg/day",60.5%
same,% Inhibition,"Hs746T tumors; day 29, PM00104 0.9 and docetaxel 8 mg/kg/day",69.6%
same,% Inhibition,"Hs746T tumors; day 29, PM00104 0.9 and docetaxel 16 mg/kg/day",69.6%
same,% Inhibition,"Hs746T tumors; day 29, PM00104 0.9 and oxaliplatin 4 mg/kg/day",69.6%
same,% Inhibition,"Hs746T tumors; day 29, PM00104 0.9 and oxaliplatin 8 mg/kg/day",69.6%
same,% Inhibition,"Hs746T tumors; day 32, PM00104 0.9 and docetaxel 8 mg/kg/day",52.4%
same,% Inhibition,"Hs746T tumors; day 32, PM00104 0.9 and docetaxel 16 mg/kg/day",52.4%
same,% Inhibition,"Hs746T tumors; day 32, PM00104 0.9 and oxaliplatin 4 mg/kg/day",52.4%
same,% Inhibition,"Hs746T tumors; day 32, PM00104 0.9 and oxaliplatin 8 mg/kg/day",52.4%
same,% Inhibition,"Hs746T tumors; day 39, PM00104 0.9 and docetaxel 8 mg/kg/day",19.7%
same,% Inhibition,"Hs746T tumors; day 39, PM00104 0.9 and docetaxel 16 mg/kg/day",19.7%
same,% Inhibition,"Hs746T tumors; day 39, PM00104 0.9 and oxaliplatin 4 mg/kg/day",19.7%
same,% Inhibition,"Hs746T tumors; day 39, PM00104 0.9 and oxaliplatin 8 mg/kg/day",19.7%
same,% T/C on day 14,SK-OV-3 tumors; [2],100.9%
same,% T/C on day 17,SK-OV-3 tumors; [2],87.6%
same,% T/C on day 21,SK-OV-3 tumors; [2],79.4%
same,% T/C on day 24,SK-OV-3 tumors; [2],78.8%
same,% T/C on day 29,SK-OV-3 tumors; [2],73.5%
same,% T/C on day 32,SK-OV-3 tumors; [2],73.1%
same,% T/C on day 36,SK-OV-3 tumors; [2],72.7%
same,% T/C on day 43,SK-OV-3 tumors; [2],81.5%
same,% T/C on day 50,SK-OV-3 tumors; [2],93.8%
same,% T/C on day 57,SK-OV-3 tumors; [2],100.4%
same,% Inhibition,SK-OV-3 tumors; bevacizumab 5 mg/kg/day,27.3%
same,% Inhibition,SK-OV-3 tumors; bevacizumab […],27.3%
same,% T/C on day 8,NCI-H460 tumors,101.5%
same,% T/C on day 10,NCI-H460 tumors,86.5%
same,% T/C on day 13,NCI-H460 tumors,48.5%
same,% T/C on day 16,NCI-H460 tumors,49.0%
same,% T/C on day 20,NCI-H460 tumors,47.2%
same,% T/C on day 23,NCI-H460 tumors,63.0%
same,% T/C on day 28,NCI-H460 tumors,61.9%
same,% T/C on day 31,NCI-H460 tumors,81.7%
same,% Inhibition,NCI-H460 tumors; day 8,−1.5%
same,% Inhibition,NCI-H460 tumors; day 10,13.5%
same,% Inhibition,NCI-H460 tumors; day 13,51.5%
same,% Inhibition,NCI-H460 tumors; day 16,51.0%
same,% Inhibition,NCI-H460 tumors; day 20,52.8%
same,% Inhibition,NCI-H460 tumors; day 23,37.0%
same,% Inhibition,NCI-H460 tumors; day 28,38.1%
same,% Inhibition,NCI-H460 tumors; day 31,18.3%
same,% T/C on day 6,H-Meso-1 tumors,98.5%
same,% T/C on day 7,H-Meso-1 tumors,80.3%
same,% T/C on day 9,H-Meso-1 tumors,69.7%
same,% T/C on day 12,H-Meso-1 tumors,63.3%
same,% T/C on day 14,H-Meso-1 tumors,62.9%
same,% T/C on day 16,H-Meso-1 tumors,62.1%
same,% T/C on day 19,H-Meso-1 tumors,55.1%
same,% T/C on day 22,H-Meso-1 tumors,51.6%
same,% T/C on day 26,H-Meso-1 tumors,56.0%
same,% T/C on day 29,H-Meso-1 tumors,64.9%
same,% Inhibition,H-Meso-1 tumors; day 6,1.5%
same,% Inhibition,H-Meso-1 tumors; day 7,19.7%
same,% Inhibition,H-Meso-1 tumors; day 9,30.3%
same,% Inhibition,H-Meso-1 tumors; day 12,36.7%
same,% Inhibition,H-Meso-1 tumors; day 14,37.1%
same,% Inhibition,H-Meso-1 tumors; day 16,37.9%
same,% Inhibition,H-Meso-1 tumors; day 19,44.9%
same,% Inhibition,H-Meso-1 tumors; day 22,48.4%
same,% Inhibition,H-Meso-1 tumors; day 26,44.0%
same,% Inhibition,H-Meso-1 tumors; day 29,35.0%
